Key:
human recombinant HDAC1 = molecular target: T1, human recombinant HDAC1 (Homo sapiens, UniProt Q13547); assay: HDAC1 enzyme activity inhibition (HDAC Fluorimetric Drug Discovery Kit); assay type: biochemical; settings: human recombinant HDAC1; IC50 calculated with GraphPad Prism; read-out: HDAC1
T1 construct: purchased Enzo Life Science, Inc. BML-SE456
Outline: (§1)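 Compounds in 5-fold dilution series were incubated with […] enzyme and 10 μM substrate at 30° C for 60 minutes. Fluor de Lys Developer II was then added for 30 minutes to stop the reaction and develop the fluorescent signal.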

human recombinant HDAC6 = molecular target: T2, human recombinant HDAC6 (Homo sapiens, UniProt Q9UBN7); assay: HDAC6 enzyme activity inhibition (HDAC Fluorimetric Drug Discovery Kit); assay type: biochemical; settings: for HDAC6 selectivity (fold): HDAC1 IC50 / HDAC6 IC50; for IC50: human recombinant HDAC6, IC50 calculated with GraphPad Prism
T2 construct: purchased Calbiochem Inc. 382180
T2 sequence (Q9UBN7 1-1215): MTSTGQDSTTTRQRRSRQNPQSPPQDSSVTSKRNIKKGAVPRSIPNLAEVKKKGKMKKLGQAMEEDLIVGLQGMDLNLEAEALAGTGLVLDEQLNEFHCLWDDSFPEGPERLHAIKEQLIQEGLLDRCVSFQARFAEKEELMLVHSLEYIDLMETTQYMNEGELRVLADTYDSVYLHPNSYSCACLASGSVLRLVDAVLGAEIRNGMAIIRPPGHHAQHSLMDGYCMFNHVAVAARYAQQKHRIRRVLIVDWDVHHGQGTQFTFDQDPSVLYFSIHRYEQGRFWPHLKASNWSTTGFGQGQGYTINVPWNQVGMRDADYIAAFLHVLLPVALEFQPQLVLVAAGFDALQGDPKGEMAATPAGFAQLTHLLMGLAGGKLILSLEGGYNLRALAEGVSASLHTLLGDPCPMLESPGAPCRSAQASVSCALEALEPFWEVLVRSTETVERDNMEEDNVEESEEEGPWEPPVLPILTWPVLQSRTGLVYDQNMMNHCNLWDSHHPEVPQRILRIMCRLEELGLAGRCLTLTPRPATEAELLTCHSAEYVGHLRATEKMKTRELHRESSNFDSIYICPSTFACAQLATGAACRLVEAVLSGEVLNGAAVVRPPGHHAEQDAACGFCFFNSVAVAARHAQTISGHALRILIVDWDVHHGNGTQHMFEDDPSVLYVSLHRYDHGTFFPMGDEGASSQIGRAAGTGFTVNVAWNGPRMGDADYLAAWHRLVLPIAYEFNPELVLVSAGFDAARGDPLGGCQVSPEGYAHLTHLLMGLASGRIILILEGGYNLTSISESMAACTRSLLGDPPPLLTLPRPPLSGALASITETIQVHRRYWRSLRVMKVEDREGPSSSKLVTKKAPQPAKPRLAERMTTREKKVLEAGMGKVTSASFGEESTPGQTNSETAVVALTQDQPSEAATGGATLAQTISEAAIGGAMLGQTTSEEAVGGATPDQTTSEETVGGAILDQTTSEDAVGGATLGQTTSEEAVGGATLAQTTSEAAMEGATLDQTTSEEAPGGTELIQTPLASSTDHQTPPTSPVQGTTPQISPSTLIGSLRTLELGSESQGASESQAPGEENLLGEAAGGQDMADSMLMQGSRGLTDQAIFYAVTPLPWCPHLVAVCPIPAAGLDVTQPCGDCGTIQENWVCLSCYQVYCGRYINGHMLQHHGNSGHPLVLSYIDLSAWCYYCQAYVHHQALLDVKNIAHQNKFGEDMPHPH
Outline: as §1

T1 sequence (Q13547 whole entry): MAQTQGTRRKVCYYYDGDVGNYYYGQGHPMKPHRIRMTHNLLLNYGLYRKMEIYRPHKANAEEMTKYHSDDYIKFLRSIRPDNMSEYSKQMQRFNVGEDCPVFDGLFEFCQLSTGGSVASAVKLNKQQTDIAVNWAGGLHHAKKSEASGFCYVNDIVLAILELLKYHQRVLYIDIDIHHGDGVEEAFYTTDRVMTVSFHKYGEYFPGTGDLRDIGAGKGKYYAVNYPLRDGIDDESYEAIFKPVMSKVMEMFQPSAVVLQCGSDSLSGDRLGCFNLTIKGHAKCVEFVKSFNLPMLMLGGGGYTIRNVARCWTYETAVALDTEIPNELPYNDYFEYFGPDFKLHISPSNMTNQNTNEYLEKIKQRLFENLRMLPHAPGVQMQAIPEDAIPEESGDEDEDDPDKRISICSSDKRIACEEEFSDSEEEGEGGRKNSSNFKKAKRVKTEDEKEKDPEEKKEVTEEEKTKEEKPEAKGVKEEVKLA

SMILES	IC50 (human recombinant HDAC1) [nM]	HDAC6 selectivity (fold) (human recombinant HDAC6)	IC50 (human recombinant HDAC6) [nM]
FC(F)c1nnc(-c2ccc(Cn3cnc(-c4ccccc4)c3)nc2)o1 [Compound 3950, 2-(difluoromethyl)-5-(6-((4-phenyl-1H-imidazol-1-yl)methyl)pyridin-3-yl)-1,3,4-oxadiazole]	> 50000	954	52.4
CCN1CC(c2cn(Cc3ccc(-c4nnc(C(F)F)o4)cn3)nn2)C1 [Compound 3951, 2-(difluoromethyl)-5-(6-((4-(1-ethylazetidin-3-yl)-1H-1,2,3-triazol-1-yl)methyl)pyridin-3-yl)-1,3,4-oxadiazole]	> 50000	81	613
CC(C)N1CC(c2cn(Cc3ccc(-c4nnc(C(F)F)o4)cn3)nn2)C1 [Compound 3952, 2-(difluoromethyl)-5-(6-((4-(1-isopropylazetidin-3-yl)-1H-1,2,3-triazol-1-yl)methyl)pyridin-3-yl)-1,3,4-oxadiazole]	> 50000	76	653
CCCCN1CC(c2cn(Cc3ccc(-c4nnc(C(F)F)o4)cn3)nn2)C1 [Compound 3953, 2-(6-((4-(1-butylazetidin-3-yl)-1H-1,2,3-triazol-1-yl)methyl)pyridin-3-yl)-5-(difluoromethyl)-1,3,4-oxadiazole]	> 50000	100	498
FC(F)c1nnc(-c2ccc(Cn3cc(C4CN(C5CCC5)C4)nn3)nc2)o1 [Compound 3954, 2-(6-((4-(1-cyclobutylazetidin-3-yl)-1H-1,2,3-triazol-1-yl)methyl)pyridin-3-yl)-5-(difluoromethyl)-1,3,4-oxadiazole]	> 50000	116	429
FC(F)c1nnc(-c2ccc(Cn3cc(C4CN(C5COC5)C4)nn3)nc2)o1 [Compound 3955, 2-(difluoromethyl)-5-(6-((4-(1-(oxetan-3-yl)azetidin-3-yl)-1H-1,2,3-triazol-1-yl)methyl)pyridin-3-yl)-1,3,4-oxadiazole]	> 50000	95	522
CC(=O)N1CC(c2cn(Cc3ccc(-c4nnc(C(F)F)o4)cn3)nn2)C1 [Compound 3956, 1-(3-(1-((5-(5-(difluoromethyl)-1,3,4-oxadiazol-2-yl)pyridin-2-yl)methyl)-1H-1,2,3-triazol-4-yl)azetidin-1-yl)ethan-1-one]	> 50000	93	536
CCC(=O)N1CC(c2cn(Cc3ccc(-c4nnc(C(F)F)o4)cn3)nn2)C1 [Compound 3957, 1-(3-(1-((5-(5-(difluoromethyl)-1,3,4-oxadiazol-2-yl)pyridin-2-yl)methyl)-1H-1,2,3-triazol-4-yl)azetidin-1-yl)propan-1-one]	> 50000	100	496
CC(C)C(=O)N1CC(c2cn(Cc3ccc(-c4nnc(C(F)F)o4)cn3)nn2)C1 [Compound 3958, 1-(3-(1-((5-(5-(difluoromethyl)-1,3,4-oxadiazol-2-yl)pyridin-2-yl)methyl)-1H-1,2,3-triazol-4-yl)azetidin-1-yl)-2-methylpropan-1-one]	> 50000	116	429
COC(=O)N1CC(c2cn(Cc3ccc(-c4nnc(C(F)F)o4)cn3)nn2)C1 [Compound 3959, Methyl 3-(1-((5-(5-(difluoromethyl)-1,3,4-oxadiazol-2-yl)pyridin-2-yl)methyl)-1H-1,2,3-triazol-4-yl)azetidin-1-carboxylate]	> 50000	209	239
FC(F)c1nnc(-c2ccc(Cn3cc(-c4cncnc4)nn3)nc2)o1 [Compound 3960, 2-(difluoromethyl)-5-(6-((4-(pyrimidin-5-yl)-1H-1,2,3-triazol-1-yl)methyl)pyridin-3-yl)-1,3,4-oxadiazole]	> 50000	473	105
CC(C)(C)OC(=O)N1CCCC(c2cn(Cc3ccc(-c4nnc(C(F)F)o4)cn3)nn2)C1 (stereo not drawn) [Compound 3961, Tert-butyl 3-(1-((5-(5-(difluoromethyl)-1,3,4-oxadiazol-2-yl)pyridin-2-yl)methyl)-1H-1,2,3-triazol-4-yl)piperidin-1-carboxylate]	> 50000	386	129
FC(F)c1nnc(-c2ccc(Cn3cc(-c4cccc(CN5CCC5)c4)nn3)nc2)o1 [Compound 3963, 2-(6-((4-(3-(azetidin-1-ylmethyl)phenyl)-1H-1,2,3-triazol-1-yl)methyl)pyridin-3-yl)-5-(difluoromethyl)-1,3,4-oxadiazole]	> 50000	841	59.4
FC1CN(Cc2cccc(-c3cn(Cc4ccc(-c5nnc(C(F)F)o5)cn4)nn3)c2)C1 [Compound 3964, 2-(difluoromethyl)-5-(6-((4-(3-((3-fluoroazetidin-1-yl)methyl)phenyl)-1H-1,2,3-triazol-1-yl)methyl)pyridin-3-yl)-1,3,4-oxadiazole]	> 50000	1908	26.2
FC(F)c1nnc(-c2ccc(Cn3cc(-c4cccc(CN5CC6(COC6)C5)c4)nn3)nc2)o1 [Compound 3965, 6-(3-(1-((5-(5-(difluoromethyl)-1,3,4-oxadiazol-2-yl)pyridin-2-yl)methyl)-1H-1,2,3-triazol-4-yl)benzyl)-2-oxa-6-azaspiro[3.3]heptane]	> 50000	1392	35.9
FC(F)c1nnc(-c2ccc(Cn3cc(-c4cccc(CN5CCCC5)c4)nn3)nc2)o1 [Compound 3966, 2-(difluoromethyl)-5-(6-((4-(3-(pyrrolidin-1-ylmethyl)phenyl)-1H-1,2,3-triazol-1-yl)methyl)pyridin-3-yl)-1,3,4-oxadiazole]	> 50000	1694	29.5
FC(F)c1nnc(-c2ccc(Cc3nnc(-c4ccccc4)o3)cc2)o1 [Compound 3980, 2-(difluoromethyl)-5-(4-((5-phenyl-1,3,4-oxadiazol-2-yl)methyl)phenyl)-1,3,4-oxadiazole]	> 50000	272	184
Cn1c(Cc2ccc(-c3nnc(C(F)F)o3)cc2)nnc1-c1ccccc1 [Compound 3981, 2-(difluoromethyl)-5-(4-((4-methyl-5-phenyl-4H-1,2,4-triazol-3-yl)methyl)phenyl)-1,3,4-oxadiazole]	> 50000	41	1200
CCN1CCN(c2cccc(-c3cn(Cc4ccc(-c5nnc(C(F)F)o5)cn4)nn3)c2)CC1 [Compound 3988, 2-(difluoromethyl)-5-(6-((4-(3-(4-ethylpiperazin-1-yl)phenyl)-1H-1,2,3-triazol-1-yl)methyl)pyridin-3-yl)-1,3,4-oxadiazole]	> 50000	4716	10.6
FC(F)c1nnc(-c2ccc(Cn3cc(-c4cccc(N5CCN(C6COC6)CC5)c4)nn3)nc2)o1 [Compound 3989, 2-(difluoromethyl)-5-(6-((4-(3-(4-(oxetan-3-yl)piperazin-1-yl)phenyl)-1H-1,2,3-triazol-1-yl)methyl)pyridin-3-yl)-1,3,4-oxadiazole]	> 50000	1597	31.3
CC(C)(C)OC(=O)N1CCC(F)(c2cn(Cc3ccc(-c4nnc(C(F)F)o4)cn3)nn2)CC1 [Compound 3999, Tert-butyl 4-(1-((5-(5-(difluoromethyl)-1,3,4-oxadiazol-2-yl)pyridin-2-yl)methyl)-1H-1,2,3-triazol-4-yl)-4-fluoropiperidin-1-carboxylate]	> 50000	575	86.9

Reference: patent US20230257372A1 (CHONG KUN DANG PHARMACEUTICAL CORP., priority 2020, published 2023)
